Tests used:
[1] = mouse, in vivo
Protocol: We subsequently analyzed the single and combined effects of Abcb1 and Abcg2 deficiencies on EAI045 plasma pharmacokinetics and tissue accumulation using male WT, Abcg2^-/-, Abcb1a/1b^-/-, and Abcb1a/1b;Abcg2^-/- mice. As we wanted to assess tissue concentrations while plasma concentrations were still relatively high; we terminated this experiment at 30 min.
(§1) Mice (Mus musculus) were bred in the Netherlands Cancer Institute and housed and handled according to institutional guidelines complying with Dutch and EU legislation. Animals used were WT, Abcb1a/1b^-/- [39], Abcg2^-/- [40], Abcb1a/1b;Abcg2^-/- [41], Cyp3a^-/- [42], and Oatp1a/1b^-/- [43] mice of a >99% FVB/N strain background. Homozygous CYP3A4 humanized transgenic mice (Cyp3aXAV) were generated by cross-breeding of transgenic mice with stable human CYP3A4 expression in the liver or intestine, respectively, in a Cyp3a^-/- background. Proper functionality of the knockout and transgenic strains was monitored by regular testing with a variety of drug substrates. All the mice used were between 10 and 15 weeks of age. Animals were kept in a temperature-controlled environment with a 12 h light/12 h dark cycle and received a standard diet (Transbreed, SDS Diets, Technilab-BMI, The Netherlands) and acidified water ad libitum. Depending on the type of experiment, 5 or 6 mice were tested in each experimental group. All experimental animal protocols, including power calculations, were ethically assessed and designed under the nationally approved DEC/CCD project AVD301002016595 (approval date, 10 August 2016) and evaluated and approved by the institutional animal care and use committee (IACUC) of the Netherlands Cancer Institute.
EAI045 was dissolved in dimethyl sulfoxide (DMSO) at a concentration of […], and then diluted with a mixture of polysorbate 80/ethanol (1:1, v/v), and further diluted with 5% (w/v) glucose in water to yield a concentration of 2 mg/mL. Final concentrations for DMSO, polysorbate 80, ethanol, and glucose in the dosing solution were 5%, 2.5%, 2.5%, and 4.5% (v/v/v/w), respectively. Elacridar hydrochloride was dissolved in DMSO at a concentration of 53 mg/mL, then diluted with a mixture of polysorbate 80, ethanol, and water [20:13:67, (v/v/v)] to yield a concentration of 5 mg/mL elacridar. The final oral dose of elacridar was 50 mg/kg body weight. All dosing solutions were prepared freshly on the day of experiment.
To minimize variation in absorption, mice were fasted for about 3 h before EAI045 was administered by gavage into the stomach (n = 5–6), using a blunt-ended needle. EAI045 was administered orally at dose of 20 mg/kg. Elacridar was administered orally at a dose of 50 mg/kg, 3 h prior to oral EAI045 administration. For the 24- or 4-h experiments, tail vein blood samplings were performed at 5 min, 30 min, 1, 2, 4, and 8 h, or 5 min, 15 min, 30 min, 1, and 2 h time points after oral administration of EAI045, respectively, using microvettes containing heparin. For the 30 min experiments, blood samplings were performed at 5, 10, and 20 min from the tail vein. At the last time point (24 h, 4 h, or 30 min), mice were anesthetized with isoflurane and blood was collected by cardiac puncture. Then, mice were sacrificed by cervical dislocation and brain, liver, spleen, kidneys, lung, small intestine with content (SIWC), and testis were rapidly removed and weighed. Tissues were homogenized on ice in appropriate volumes of 2% (w/v) BSA. Blood samples were centrifuged at 9000× g for 6 min at 4 °C immediately after collection. All samples were stored at −30 °C until analysis.

[2] = mouse, in vivo; remark: listed apart in the source
Protocol: A 4-h pilot experiment was performed in female wild-type (WT) and double-knockout Abcb1a/1b;Abcg2^-/- mice, with oral administration of 20 mg/kg EAI045. As shown in Supplemental Figure S2A,B, EAI045 was very rapidly absorbed in all strains, with an apparent tmax around 5 min.
We further measured the brain, liver, kidney, spleen, lung, and small intestine with content (SIWC) concentrations of EAI045 4 h after oral administration. Whereas at t = 4 h the plasma concentrations between the two strains were similar, the brain concentrations and brain-to-plasma ratios in Abcb1a/1b;Abcg2^-/- mice were dramatically higher than those in WT mice (25-fold and 12-fold, respectively, Supplemental Figure S3A,B). […] In contrast, the small intestine with content (SIWC) percentage of dose (SIWC%) and SIWC%-to-plasma ratio was reduced in Abcb1a/1b;Abcg2^-/- mice (Supplemental Figure S3K,L).
as §1
EAI045 was dissolved in dimethyl sulfoxide (DMSO) at a concentration of 4 mg/mL, and then diluted with a mixture of polysorbate 80/ethanol (1:1, v/v), and further diluted with 5% (w/v) glucose in water to yield a concentration of 2 mg/mL. Final concentrations for DMSO, polysorbate 80, ethanol, and glucose in the dosing solution were 5%, 2.5%, 2.5%, and 4.5% (v/v/v/w), respectively. […]

- Kp.SIWC% (SIWC%-to-plasma ratio), fold decrease [1]: 3.6 fold
- SIWC%, fold decrease [1]: 2.1 fold
- brain-to-plasma ratio, fold increase [1]: 5.2 fold
- plasma AUC0–30min, fold increase [1]: 2.1 fold
- percentage of dose left in intestinal lumen (SIWC%) [2]: 1.7%
- apparent tmax ([2]; po, 20 mg/kg): around 5 min
- plasma exposure over 4 h (AUC0–4h) ([2]; po, 20 mg/kg): not meaningfully altered
- brain-to-plasma ratio ([2]; po, 20 mg/kg, 4 h): 0.15
SMILES: O=C(Nc1nccs1)C(c1cc(F)ccc1O)N1Cc2ccccc2C1=O (centres unmarked) [EAI045]
